Columns and labels:
Experiment in all cases: SILAC competitive chemical proteomic assay (TH211 probe, LC-MS/MS)
Assay type in all cases: cell-based
Alpha-enolase = molecular target: T1, Alpha-enolase (Homo sapiens, UniProt P06733); conditions: TH207 inhibitor; HEK293T soluble fraction; P06733.2 lysine 80
T1 construct: endogenous in cells; host or cells: HEK293T
Experimental: (§1) The light and heavy proteomes (2.3 mg/mL, 432 μL) prepared from HEK293T cells that were pretreated in situ with vehicle (DMSO) or the inhibitor (2 μM), respectively, at 37° C. for 1 hr followed by probe TH211 treatment (50 μM) for 2 h, were directly were subjected to click reaction with the desthiobiotin-PEG3-azide (10 mM in DMSO, 10 μL, final concentration 200 μM) in the presence of TCEP (50 mM, 10 μL), TBTA (1.7 mM, 33 μL) and CuSO4 (50 mM, 10 μL) at room temperature for 1 hr. The light and the heavy samples were mixed in the chloroform-methanol extraction step. The subsequent steps including reduction with dithiothreitol, alkylation with iodoacetamide, digestion with Trypsin/Lys-C, enrichment with avidin beads were conducted as previously described^26.

Coronin-1C = molecular target: T2, Coronin-1C (Homo sapiens, UniProt Q9ULV4); conditions: TH207 inhibitor; HEK293T soluble fraction; Q9ULV4.1 tyrosine 301
T2 construct: endogenous in cells; host or cells: HEK293T
Experimental: as §1

[1] = molecular target: T3, Inosine-5′-monophosphate dehydrogenase 2 (Homo sapiens, UniProt P12268); conditions: TH207 inhibitor; HEK293T soluble fraction; P12268.2 tyrosine 509
T3 construct: endogenous in cells; host or cells: HEK293T
Experimental: as §1

Isoleucine tRNA ligase = molecular target: T4, Isoleucine tRNA ligase (Homo sapiens, UniProt Q9NSE4); conditions: TH207 inhibitor; HEK293T soluble fraction; Q9NSE4.2 tyrosine 260
T4 construct: endogenous in cells; host or cells: HEK293T
T4 sequence (Q9NSE4 49-1012): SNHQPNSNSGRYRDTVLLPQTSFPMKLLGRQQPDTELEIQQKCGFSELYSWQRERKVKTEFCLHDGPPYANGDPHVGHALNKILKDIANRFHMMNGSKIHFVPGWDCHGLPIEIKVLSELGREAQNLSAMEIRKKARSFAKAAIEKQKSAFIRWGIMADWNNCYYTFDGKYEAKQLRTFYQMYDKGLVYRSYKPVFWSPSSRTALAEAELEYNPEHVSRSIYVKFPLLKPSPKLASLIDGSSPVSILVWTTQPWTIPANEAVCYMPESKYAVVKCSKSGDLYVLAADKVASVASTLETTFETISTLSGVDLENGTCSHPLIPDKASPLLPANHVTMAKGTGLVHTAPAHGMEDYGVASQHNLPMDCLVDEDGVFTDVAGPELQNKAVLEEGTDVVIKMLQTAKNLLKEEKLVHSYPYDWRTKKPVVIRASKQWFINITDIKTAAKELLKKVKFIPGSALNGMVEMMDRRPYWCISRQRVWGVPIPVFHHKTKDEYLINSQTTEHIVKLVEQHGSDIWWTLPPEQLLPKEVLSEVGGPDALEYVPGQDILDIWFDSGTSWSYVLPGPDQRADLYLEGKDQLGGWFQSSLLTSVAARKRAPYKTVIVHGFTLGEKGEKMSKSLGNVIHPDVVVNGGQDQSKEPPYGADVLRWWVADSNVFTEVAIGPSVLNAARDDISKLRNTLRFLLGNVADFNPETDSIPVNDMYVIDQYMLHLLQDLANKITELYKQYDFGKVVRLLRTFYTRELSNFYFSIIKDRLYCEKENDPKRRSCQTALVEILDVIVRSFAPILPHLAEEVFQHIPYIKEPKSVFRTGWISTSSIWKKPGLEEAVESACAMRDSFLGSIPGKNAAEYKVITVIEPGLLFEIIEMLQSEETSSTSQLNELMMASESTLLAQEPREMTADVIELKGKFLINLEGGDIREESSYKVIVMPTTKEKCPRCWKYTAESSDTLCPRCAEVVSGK
Experimental: as §1

[2] = molecular target: T5, Phosphatidylinositol transfer protein beta isoform (Homo sapiens, UniProt P48739); conditions: TH207 inhibitor, HEK293T soluble fraction
T5 construct: endogenous in cells; host or cells: HEK293T
T5 sequence (P48739 1-271): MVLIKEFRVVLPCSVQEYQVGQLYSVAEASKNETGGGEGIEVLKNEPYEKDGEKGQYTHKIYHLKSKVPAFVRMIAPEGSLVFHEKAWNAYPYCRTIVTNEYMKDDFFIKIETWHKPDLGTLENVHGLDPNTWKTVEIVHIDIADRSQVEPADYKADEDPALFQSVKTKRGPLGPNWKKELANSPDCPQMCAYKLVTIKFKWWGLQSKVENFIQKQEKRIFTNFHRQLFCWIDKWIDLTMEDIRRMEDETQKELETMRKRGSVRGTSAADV
Experimental: as §1

[3] = molecular target: T6, Phosphotyrosine protein phosphatase (Homo sapiens, UniProt P24666); conditions: TH207 inhibitor; HEK293T soluble fraction; P24666.3 tyrosine 132
T6 construct: endogenous in cells; host or cells: HEK293T
T6 sequence (P24666 1-158): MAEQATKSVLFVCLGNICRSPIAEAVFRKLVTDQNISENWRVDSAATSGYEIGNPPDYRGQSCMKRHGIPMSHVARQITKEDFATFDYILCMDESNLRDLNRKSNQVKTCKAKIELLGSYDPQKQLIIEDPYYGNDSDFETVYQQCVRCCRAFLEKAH
Experimental: as §1

Sorting nexin-6 = molecular target: T7, Sorting nexin-6 (Homo sapiens, UniProt Q9UNH7); conditions: TH207 inhibitor; HEK293T soluble fraction; Q9UNH7.1 lysine 204
T7 construct: endogenous in cells; host or cells: HEK293T
T7 sequence (Q9UNH7 1-406): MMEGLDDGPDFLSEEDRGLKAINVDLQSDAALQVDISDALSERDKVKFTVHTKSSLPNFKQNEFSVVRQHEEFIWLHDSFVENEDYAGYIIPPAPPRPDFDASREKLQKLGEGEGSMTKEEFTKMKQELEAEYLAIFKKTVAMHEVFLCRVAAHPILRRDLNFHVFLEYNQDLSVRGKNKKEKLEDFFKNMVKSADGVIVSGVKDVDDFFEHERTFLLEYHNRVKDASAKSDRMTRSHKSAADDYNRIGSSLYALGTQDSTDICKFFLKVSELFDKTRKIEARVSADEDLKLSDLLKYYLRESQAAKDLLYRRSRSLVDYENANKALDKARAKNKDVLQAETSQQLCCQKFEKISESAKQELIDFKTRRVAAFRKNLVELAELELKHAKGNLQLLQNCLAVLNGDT
Experimental: as §1

dCTP pyrophosphatase 1 = molecular target: T8, dCTP pyrophosphatase 1 (Homo sapiens, UniProt Q9H773); conditions: TH207 inhibitor; HEK293T soluble fraction; Q9H773.1 tyrosine 129
T8 construct: endogenous in cells; host or cells: HEK293T
T8 sequence (Q9H773 1-170): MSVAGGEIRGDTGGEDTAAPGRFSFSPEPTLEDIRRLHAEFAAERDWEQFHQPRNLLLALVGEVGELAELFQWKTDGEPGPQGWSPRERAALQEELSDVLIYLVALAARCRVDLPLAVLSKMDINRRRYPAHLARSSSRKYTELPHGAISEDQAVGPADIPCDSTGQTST
Experimental: as §1

T3 sequence (P12268 2-514 limits assumed): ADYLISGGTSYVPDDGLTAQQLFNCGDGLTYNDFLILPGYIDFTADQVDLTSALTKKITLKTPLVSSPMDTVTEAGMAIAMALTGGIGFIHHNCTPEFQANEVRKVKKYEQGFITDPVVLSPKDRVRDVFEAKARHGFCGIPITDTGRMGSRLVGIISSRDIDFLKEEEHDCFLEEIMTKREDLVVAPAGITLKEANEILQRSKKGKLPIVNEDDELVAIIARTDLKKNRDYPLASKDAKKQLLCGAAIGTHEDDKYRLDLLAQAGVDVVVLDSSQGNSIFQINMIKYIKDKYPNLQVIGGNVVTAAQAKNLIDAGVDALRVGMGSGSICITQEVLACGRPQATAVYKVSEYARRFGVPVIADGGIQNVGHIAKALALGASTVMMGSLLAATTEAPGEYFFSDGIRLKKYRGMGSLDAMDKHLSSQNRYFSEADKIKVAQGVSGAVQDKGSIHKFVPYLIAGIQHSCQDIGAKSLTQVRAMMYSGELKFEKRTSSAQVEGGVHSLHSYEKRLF
T2 sequence (Q9ULV4 whole entry): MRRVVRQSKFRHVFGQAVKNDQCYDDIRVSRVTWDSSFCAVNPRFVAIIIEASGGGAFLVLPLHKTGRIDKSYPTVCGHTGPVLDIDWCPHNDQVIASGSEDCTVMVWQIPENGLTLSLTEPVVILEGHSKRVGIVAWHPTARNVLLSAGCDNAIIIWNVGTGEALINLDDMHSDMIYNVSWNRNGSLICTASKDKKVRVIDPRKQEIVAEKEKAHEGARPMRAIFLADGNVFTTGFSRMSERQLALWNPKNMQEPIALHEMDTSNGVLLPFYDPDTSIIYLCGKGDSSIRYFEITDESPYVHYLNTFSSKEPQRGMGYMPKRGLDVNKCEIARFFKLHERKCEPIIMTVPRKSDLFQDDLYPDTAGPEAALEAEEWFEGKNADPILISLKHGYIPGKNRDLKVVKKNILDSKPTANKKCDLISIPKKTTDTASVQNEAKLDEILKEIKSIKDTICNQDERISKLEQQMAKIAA
T1 sequence (P06733 whole entry): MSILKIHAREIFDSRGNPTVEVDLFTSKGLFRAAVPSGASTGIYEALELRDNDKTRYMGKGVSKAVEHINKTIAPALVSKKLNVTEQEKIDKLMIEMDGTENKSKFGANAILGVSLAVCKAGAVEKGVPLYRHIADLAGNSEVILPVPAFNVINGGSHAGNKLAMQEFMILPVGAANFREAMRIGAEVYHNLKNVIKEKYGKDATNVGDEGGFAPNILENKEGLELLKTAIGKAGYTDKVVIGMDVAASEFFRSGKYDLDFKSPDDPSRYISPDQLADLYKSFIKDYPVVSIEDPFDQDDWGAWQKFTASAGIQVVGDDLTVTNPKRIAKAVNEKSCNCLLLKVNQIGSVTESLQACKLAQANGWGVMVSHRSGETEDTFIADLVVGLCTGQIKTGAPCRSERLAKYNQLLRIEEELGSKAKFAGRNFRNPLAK

Compound: Cc1ccc(S(=O)(=O)n2cc(CCN3CCC(=C(c4ccc(F)cc4)c4ccc(F)cc4)CC3)nn2)cc1 [TH207, 4-(Bis(4-fluorophenyl)methylene)-1-(2-(1-tosyl-1H-1,2,3-triazol-4-yl)ethyl)piperidine]
- Normalized SILAC ratio (SR), Alpha-enolase K80 (Alpha-enolase): 1.6
- Normalized SILAC ratio (SR), Coronin-1C Y301 (Coronin-1C): 20
- Normalized SILAC ratio (SR), Inosine-5′-monophosphate dehydrogenase 2 Y509 [1]: 1.6
- Normalized SILAC ratio (SR), Isoleucine tRNA ligase Y260 (Isoleucine tRNA ligase): 1.8
- Normalized SILAC ratio (SR), Phosphatidylinositol transfer protein beta isoform K155 ([2]; P48739.2 lysine 155): 1.8
- Normalized SILAC ratio (SR), Phosphatidylinositol transfer protein beta isoform Y154 ([2]; P48739.2 tyrosine 154): 1.8
- Normalized SILAC ratio (SR), Phosphotyrosine protein phosphatase Y132 [3]: 1.9
- Normalized SILAC ratio (SR), Sorting nexin-6 K204 (Sorting nexin-6): 6.9
- Normalized SILAC ratio (SR), dCTP pyrophosphatase 1 Y129 (dCTP pyrophosphatase 1): 3

From patent publication US20240400542A1 (University of Virginia Patent Foundation, priority 2021, published 2024)
